# According to patent publication US20100093721A1, “PHENYL AND HETEROARYL SUBSTITUTED THIENO[2,3-d]PYRIMIDINES AND THEIR USE AS ADENOSINE A2a RECEPTOR ANTAGONISTS” (priority 2008, published 2010):
# Structures can show the parent of a compound that is named as a salt.
# Experiments:
# [1] = target: T1, human adenosine A2a receptor (Homo sapiens, UniProt P29274); assay: Adenosine A2a Receptor Functional Assay (A2AGAL2); format: cell-based; conditions: CHO-K1 cells, cAMP inducible beta-galactosidase reporter, 15 nM NECA agonist challenge
# T1 construct: expressed in transfected cells; host or cells: CHO-K1
# Procedure: Adenosine A2a Receptor Functional Assay (A2AGAL2)
# Prior to assay, these plates were cultured for two days at 37° C., 5% CO2, 90% Rh. On the day of the functional assay, culture media was removed and replaced with 45 uL assay medium (Hams/F-12 Modified (Mediatech #10-080CV) supplemented w/0.1% BSA). Test compounds were diluted and 11 point curves created at a 1000× concentration in 100% DMSO. Immediately after addition of assay media to the cell plates, 50 nL of the appropriate test compound antagonist or agonist control curves were added to cell plates using a Cartesian Hummingbird. […] A control curve of NECA, a DMSO/Media control, and a single dose of Forskolin (Sigma F3917) were also included on each plate. After additions, cell plates were allowed to incubate at 37° C., 5% CO2, 90% Rh for 5.5-6 hours. After incubation, media was removed, and cell plates were washed 1×50 uL with DPBS w/o Ca & Mg (Mediatech 21-031-CV). Into dry wells, 20 uL of 1× Reporter Lysis Buffer (Promega E3971 (diluted in dH2O from 5× stock)) was added to each well and plates frozen at −20° C. overnight. For β-galactosidase enzyme colorimetric assay, plates were thawed out at room temperature and 20 μL 2× assay buffer (Promega) was added to each well. Color was allowed to develop at 37° C., 5% CO2, 90% Rh for 1-1.5 h or until reasonable signal appeared. The colorimetric reaction was stopped with the addition of 60 μL/well 1M sodium carbonate. Plates were counted at 405 nm on a SpectraMax Microplate Reader (Molecular Devices). Data was analyzed in Microsoft Excel and IC/EC50 curves were fit using a standardized macro.
# [2] = target: T2, human adenosine A1 receptor (Homo sapiens, UniProt P30542); assay: Adenosine A1 Receptor Functional Assay (A1GAL2); format: cell-based; conditions: CHO-K1 cells, cAMP inducible beta-galactosidase reporter, 4 nM r-PIA/1 uM Forskolin challenge
# T2 construct: expressed in transfected cells; host or cells: CHO-K1
# T2 sequence (P30542 1-326): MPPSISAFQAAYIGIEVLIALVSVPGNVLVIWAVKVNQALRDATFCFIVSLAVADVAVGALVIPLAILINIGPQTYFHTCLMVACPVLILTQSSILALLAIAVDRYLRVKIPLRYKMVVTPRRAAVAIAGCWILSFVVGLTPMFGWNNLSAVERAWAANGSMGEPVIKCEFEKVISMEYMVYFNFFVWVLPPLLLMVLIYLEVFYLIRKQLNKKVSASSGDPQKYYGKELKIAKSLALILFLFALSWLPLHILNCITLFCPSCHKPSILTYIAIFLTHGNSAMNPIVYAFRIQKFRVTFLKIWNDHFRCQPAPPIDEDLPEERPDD
# Procedure: Adenosine A1 Receptor Functional Assay (A1GAL2)
# To initiate the functional assay, cryopreserved CHO-K1 cells overexpressing the human adenosine A1 receptor and containing a cAMP inducible beta-galactosidase reporter gene were thawed, centrifuged, DMSO containing media removed, and then seeded with fresh culture media into clear 384-well tissue culture treated plates (BD #353961) at a concentration of 10K cells/well. Prior to assay, these plates were cultured for two days at 37° C., 5% CO2, 90% Rh. On the day of the functional assay, culture media was removed and replaced with 45 uL assay medium (Hams/F-12 Modified (Mediatech #10-080CV) supplemented w/0.1% BSA). Test compounds were diluted and 11 point curves created at a 1000× concentration in 100% DMSO. Immediately after addition of assay media to the cell plates, 50 nL of the appropriate test compound antagonist or agonist control curves were added to cell plates using a Cartesian Hummingbird. Compound curves were allowed to incubate at room temperature on cell plates for approximately 15 minutes before addition of a 4 nM r-PIA (Sigma P4532)/1 uM Forskolin (Sigma F3917) agonist challenge (5 uL volume). A control curve of r-PIA in 1 uM Forskolin, a DMSO/Media control, and a single dose of Forskolin were also included on each plate. After additions, cell plates were allowed to incubate at 37° C., 5% CO2, 90% Rh for 5.5-6 hours. After incubation, media was removed, and cell plates were washed 1×50 uL with DPBS w/o Ca & Mg (Mediatech 21-031-CV). Into dry wells, 20 uL of 1× Reporter Lysis Buffer (Promega E3971 (diluted in dH2O from 5× stock)) was added to each well and plates frozen at −20° C. overnight. For β-galactosidase enzyme calorimetric assay, plates were thawed out at room temperature and 20 μL 2× assay buffer (Promega) was added to each well. Color was allowed to develop at 37° C., 5% CO2, 90% Rh for 1-1.5 h or until reasonable signal appeared. The calorimetric reaction was stopped with the addition of 60 μL/well 1M sodium carbonate. Plates were counted at 405 nm on a SpectraMax Microplate Reader (Molecular Devices). Data was analyzed in Microsoft Excel and IC/EC50 curves were fit using a standardized macro.
# [3] = target: T3, human A2a adenosine receptor (Homo sapiens, UniProt P29274); assay: Ligand Binding Assay for Adenosine A2a Receptor; conditions: HEK293 plasma membrane, radioligand [3H]CGS21680; read-out: A2A-B Ki
# T3 construct: purchased PerkinElmer RB-HA2a; host or cells: HEK293 plasma membranes
# Procedure: Ligand Binding Assay for Adenosine A2a Receptor
# Ligand binding assay of adenosine A2a receptor was performed using plasma membrane of HEK293 cells containing human A2a adenosine receptor (PerkinElmer, RB-HA2a) and radioligand [^3H]CGS21680 (PerkinElmer, NET1021). Assay was set up in 96-well polypropylene plate in total volume of 200 μL by sequentially adding 20 μL 1:20 diluted membrane, 130 μL assay buffer (50 mM Tris.HCl, pH7.4 10 mM MgCl2, 1 mM EDTA) containing [^3H] CGS21680, 50 μL diluted compound (4×) or vehicle control in assay buffer. Nonspecific binding was determined by […] NECA. Reaction was carried out at room temperature for 2 hours before filtering through 96-well GF/C filter plate pre-soaked in 50 mM Tris.HCl, pH7.4 containing 0.3% polyethylenimine. Plates were then washed 5 times with cold 50 mM Tris.HCl, pH7.4, dried and sealed at the bottom. Microscintillation fluid 30 μL was added to each well and the top sealed. Plates were counted on Packard Topcount for [^3H]. Data was analyzed in Microsoft Excel and GraphPad Prism programs. (Varani, K.; Gessi, S.; Dalpiaz, A.; Borea, P. A. British Journal of Pharmacology, 1996, 117, 1693)
# T1 sequence (P29274 whole entry): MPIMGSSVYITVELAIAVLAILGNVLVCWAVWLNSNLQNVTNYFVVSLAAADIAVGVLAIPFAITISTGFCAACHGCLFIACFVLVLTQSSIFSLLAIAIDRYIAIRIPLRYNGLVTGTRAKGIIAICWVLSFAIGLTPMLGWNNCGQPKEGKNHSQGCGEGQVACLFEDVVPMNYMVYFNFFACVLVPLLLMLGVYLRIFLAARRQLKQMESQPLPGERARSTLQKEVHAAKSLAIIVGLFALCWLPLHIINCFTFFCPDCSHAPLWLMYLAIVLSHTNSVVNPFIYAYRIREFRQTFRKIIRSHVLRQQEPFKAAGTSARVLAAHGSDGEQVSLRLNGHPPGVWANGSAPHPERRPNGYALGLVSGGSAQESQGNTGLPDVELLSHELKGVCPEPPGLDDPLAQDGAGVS
# T3 sequence (P29274 whole entry): as above
Ki [1] [nM],Ki [2] [nM],Ki [3] [nM],SMILES
25.2,3000,37.5,"Nc1nc(-c2ccc(C(F)F)o2)nc2sc(Cc3ccccc3)cc12 [Example 43, 6-Benzyl-2-(5-difluoromethyl-furan-2-yl)-thieno[2,3-d]pyrimidin-4-ylamine]"
4.37,34.4,–,"COc1ccccc1C(O)c1cc2c(N)nc(-c3ccc(C(F)F)o3)nc2s1 (centres unmarked) [Example 45, [4-Amino-2-(5-difluoromethyl-furan-2-yl)-thieno[2,3-d]pyrimidin-6-yl]-(2-methoxy-phenyl)-methanol]"
100,1420,–,"Cc1csc(-c2nc(N)c3cc(C(C)c4ccccc4)sc3n2)n1 (racemic) [Example 17, (±)-2-(4-Methyl-thiazol-2-yl)-6-(1-phenyl-ethyl)-thieno[2,3-d]pyrimidin-4-ylamine]"
17.5,618,–,"Nc1nc(-c2ncccn2)nc2sc(Cc3ccccc3)cc12 [Example 25, 6-Benzyl-2-pyrimidin-2-yl-thieno[2,3-d]pyrimidin-4-ylamine hydrochloride]"
19.4,1180,72.7,"CC(c1ccccc1)c1cc2c(N)nc(-c3ncco3)nc2s1 (racemic) [Example 21, (±)-2-Oxazol-2-yl-6-(1-phenyl-ethyl)-thieno[2,3-d]pyrimidin-4-ylamine]"
938,20200,173,"Cc1ccc(-c2nc(N)c3cc(/C=C/c4ccc(F)cc4)sc3n2)o1 [Example 30, 6-[2-(4-Fluoro-phenyl)-vinyl]-2-(5-methyl-furan-2-yl)-thieno[2,3-d]pyrimidin-4-ylamine]"
304,3160,–,"N#Cc1ccc(-c2nc(N)c3cc(Cc4ccccc4)sc3n2)o1 [Example 18, 5-(4-Amino-6-benzyl-thieno[2,3-d]pyrimidin-2-yl)-furan-2-carbonitrile]"
107,> 610,–,"Cc1csc(-c2nc(N)c3cc(C4(c5ccccc5)CC4)sc3n2)n1 [Example 10, 2-(4-Methyl-thiazol-2-yl)-6-(1-phenyl-cyclopropyl)-thieno[2,3-d]pyrimidin-4-ylamine]"
48.8,223,–,"CCc1ccc(-c2nc(N)c3cc(Cc4ccccc4)sc3n2)o1 [Example 8, 6-Benzyl-2-(5-ethyl-furan-2-yl)-thieno[2,3-d]pyrimidin-4-ylamine]"
26.4,> 1040,–,"N#Cc1cccc(-c2nc(N)c3cc(Cc4ccccc4)sc3n2)n1 [Example 24, 6-(4-Amino-6-benzyl-thieno[2,3-d]pyrimidin-2-yl)-pyridine-2-carbonitrile]"
215,1420,192,"Nc1nc(-c2cccnc2)nc2sc(Cc3ccccc3)cc12 [Example 13, 6-Benzyl-2-pyridin-3-yl-thieno[2,3-d]pyrimidin-4-ylamine]"
539,2330,–,"Cn1cnc(-c2nc(N)c3cc(Cc4ccccc4)sc3n2)c1 [Example 20, 6-Benzyl-2-(1-methyl-1H-imidazol-4-yl)-thieno[2,3-d]pyrimidin-4-ylamine]"
2.42,90.9,–,"Nc1nc(-c2cnccn2)nc2sc(Cc3ccccc3)cc12 [Example 32, 6-Benzyl-2-pyrazin-2-yl-thieno[2,3-d]pyrimidin-4-ylamine]"
–,–,328,"Cc1ccc(-c2nc(N)c3cc(C(=O)c4ccccc4CN4CCOCC4)sc3n2)o1 [Example 7, [4-Amino-2-(5-methyl-furan-2-yl)-thieno[2,3-d]pyrimidin-6-yl]-(2-morpholin-4-ylmethyl-phenyl)-methanone]"
263,861,–,"Nc1nc(-c2ccc(C3CC3)o2)nc2sc(Cc3ccccc3)cc12 [Example 23, 6-Benzyl-2-(5-cyclopropyl-furan-2-yl)-thieno[2,3-d]pyrimidin-4-ylamine]"
13,516,–,"COc1ccccc1Cc1cc2c(N)nc(-c3ccc(C(F)F)o3)nc2s1 [Example 39, 2-(5-Difluoromethyl-furan-2-yl)-6-(2-methoxy-benzyl)-thieno[2,3-d]pyrimidin-4-ylamine]"
31,> 594,–,"C=C(c1ccccc1)c1cc2c(N)nc(-c3nc(C)cs3)nc2s1 [Example 9, 2-(4-Methyl-thiazol-2-yl)-6-(1-phenyl-vinyl)-thieno[2,3-d]pyrimidin-4-ylamine]"
13.2,186,–,"COc1ccccc1Cc1cc2c(N)nc(-c3nc(C)cs3)nc2s1 [Example 15, 6-(2-Methoxy-benzyl)-2-(4-methyl-thiazol-2-yl)-thieno[2,3-d]pyrimidin-4-ylamine]"
2.28,20.8,–,"Cc1ccc(-c2nc(N)c3cc(C(O)c4ccccc4)sc3n2)o1 (centres unmarked) [Example 2, [4-Amino-2-(5-methyl-furan-2-yl)-thieno[2,3-d]pyrimidin-6-yl]-phenyl-methanol]"
57.2,263,–,"Cc1nc(-c2nc(N)c3cc(Cc4ccccc4)sc3n2)cs1 [Example 28, 6-Benzyl-2-(2-methyl-thiazol-4-yl)-thieno[2,3-d]pyrimidin-4-ylamine]"
47.8,910,–,"Cc1ccc(-c2nc(N)c3cc(C(C)c4ccccc4)sc3n2)o1 (racemic) [Example 16, (±)-2-(5-Methyl-furan-2-yl)-6-(1-phenyl-ethyl)-thieno[2,3-d]pyrimidin-4-ylamine]"
2.48,100,–,"Nc1nc(-c2cnco2)nc2sc(Cc3ccccc3)cc12 [Example 19, 6-Benzyl-2-oxazol-5-yl-thieno[2,3-d]pyrimidin-4-ylamine]"

SMILES,Ki [1] [nM],Ki [2] [nM],Ki [3] [nM]
"Cc1ccc(-c2nc(N)c3cc(Cc4ccccc4)sc3n2)o1 [Example 1, 6-Benzyl-2-(5-methyl-furan-2-yl)-thieno[2,3-d]pyrimidin-4-ylamine]",11,279,11.9
